From US7265152B2 (ViroPharma Incorporated, priority 2002, dated 2007) come the findings set out here.

Assay [1] deals with HCV replicon (BB7 sequence) in Huh-7-Clone A cells. In words: HCV replicon assay: ELISA of NS5A protein in replicon-containing cells (Inhibition of Viral RNA Replication). The note with it: read-out: Replicon. The format is cell-based. In short, it runs like this: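 Huh-7-Clone A cells carrying subgenomic BB7 HCV replicon (G418-selectable) incubated 72 h with compound. NS5A protein quantified by cell ELISA: glutaraldehyde fixation, anti-NS5A monoclonal plus HRP secondary, TMB read at OD 650 nm. EC50 derived from 8-point serial dilution dose curve.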
A general note: In antiviral work, replicon cells carry a viral genome segment that copies itself.

A further assay deals with T1, HCV NS5B (Hepatitis C virus genotype 1b, UniProt Q9WMX2).
T1 construct: fusion protein, of which the carboxyl terminal 21 amino acids were removed to enhance its solubility; His tag (GSHHHHHH); made in house; host or cells: E. coli
The experiment in a line: Inhibition of viral RNA-dependent RNA polymerase (RdRp), in vitro biochemical assay. On the set-up: species or system HCV genotype 1b virus (BB7). The note with it: read-out: HCV pol-BB7 IC50. The procedure, abridged:
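Purified recombinant NS5B from a genotype 1b consensus (BB7), His-tagged, E. coli-expressed, with the C-terminal 21 residues deleted. Inhibition of RdRp activity in vitro was measured, and IC50 is the concentration giving 50% inhibition.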

[2] abbreviates: Hepatitis C virus, HCV replicon assay, ranges of EC50.
Setting [3] is: HCV NS5B RdRp, BB7, activity class.
Where [4] appears, read: Hepatitis C virus, ranges of EC50 in HCV replicon assay.
The mark [5] stands for this setting: Hepatitis C virus, HCV replicon, range of EC50.
The mark [6] stands for this setting: HCV NS5B RdRp, BB7, reported as range class.
Setting [7] is: Hepatitis C virus, HCV replicon assay, ranges of 50% effective concentration (EC50).
[8] abbreviates: HCV NS5B polymerase, BB7 (genotype 1b), values given as range classes A-D.
The mark [9] stands for this setting: Hepatitis C virus, Huh-7-Clone A, NS5A ELISA, 72-hour incubation, ranges of EC50.
Setting [10] is: purified His-tagged NS5B (BB7), carboxyl terminal 21 amino acids removed.
The mark [11] stands for this setting: HCV NS5B RdRp, BB7, class symbols A-D.

pEC50, pIC50: −log10 of the molar value. Like-named read-outs stand apart in the source and are kept apart here.

Turning to `CNC(=O)c1c(-c2ccc(F)cc2)oc2cc(N(C)S(C)(=O)=O)c(OCc3cccc(C#N)c3)cc12` [Example 356, 5-(3-Cyano-benzyloxy)-2-(4-fluoro-phenyl)-6-(methanesulfonyl-methyl-amino)-benzofuran-3-carboxylic acid methylamide], the pEC50 in assay [1] (setting [2]) is more than 6.00. Also, the pIC50 on HCV NS5B (setting [3]) is not below 6.30.

For `CNC(=O)c1c(-c2ccc(F)cc2)oc2cc(CNS(C)(=O)=O)c(OC(C)C)cc12` [Example 162, 2-(4-Fluoro-phenyl)-5-isopropoxy-6-(methanesulfonylamino-methyl)-benzofuran-3-carboxylic acid methylamide], the pEC50 in assay [1] (setting [4]) is more than 5.00. Moreover, the pIC50 on HCV NS5B (HCV NS5B RdRp, BB7 genotype 1b) is 5.30 to 6.30.

As to `CNC(=O)c1c(-c2ccc(F)cc2)oc2cc(-c3cc(C)nn3C)c(OC(C)C)cc12` [Example 245, 6-(2,5-Dimethyl-2H-pyrazol-3-y1)-2-(4-fluoro-phenyl)-5-isopropoxybenzofuran 3-carboxylic acid methylamide], in assay [1] (setting [5]), the pEC50 is more than 5.00. The negative logarithm of the IC50 (pIC50) at HCV NS5B (setting [6]) is 5.30 to 6.30.

Regarding `CNC(=O)c1c(-c2ccc(F)cc2)oc2cc(N(C)S(C)(=O)=O)c(OCc3nn(C)cc3Cl)cc12` [Example 403, 5-(4-Chloro-1-methyl-1H-pyrazol-3-ylmethoxy)-2-(4-fluoro-phenyl)-6-(methanesulfonyl-methyl-amino)-benzofuran-3-carboxylic acid methylamide], the pEC50 in assay [1] (setting [7]) was more than 6.00. In addition, the pIC50 on HCV NS5B (setting [8]) is not below 6.30.

As for `CNC(=O)c1c(-c2ccccc2)oc2ccc(CO)cc12` [Example 118, 5-Hydroxymethyl-2-phenyl-benzofuran-3-carboxylic acid methylamide], the pEC50 in assay [1] (setting [4]) was less than 4.00. Further, on HCV NS5B (HCV NS5B RdRp, BB7 genotype 1b), the pIC50 is 4.52 to 5.30.

In the case of “2-(4-Fluoro-phenyl)-5-isopropoxy-6-ureido-benzofuran-3-carboxylic acid methylamide [Example 135]”, the pEC50 in assay [1] (ranges of EC50 in HCV replicon assay) is more than 5.00. Further, at HCV NS5B (HCV NS5B RdRp, BB7 genotype 1b), the pIC50 was not below 6.30.

As to `CNC(=O)c1c(-c2ccc(F)cc2)oc2cc(NCC3CCCO3)c(OC(C)C)cc12` (centres unmarked) [Example 123, 2-(4-Fluoro-phenyl)-5-isopropoxy-6-[(tetrahydro-furan-2-ylmethyl)-amino]-benzofuran-3-carboxylic acid methylamide], in assay [1] (setting [4]), the pEC50 was more than 5.00. In addition, the pIC50 on HCV NS5B (HCV NS5B RdRp, BB7 genotype 1b) is not below 6.30.

Consider `CNC(=O)c1c(-c2ccc(F)cc2)oc2cc(NS(C)(=O)=O)c(-c3ccco3)cc12` [Example 426, 2-(4-Fluoro-phenyl)-5-furan-2-yl-6-methanesulfonylamino-benzofuran-3-carboxylic acid methylamide], for which the pEC50 in assay [1] (setting [7]) is more than 6.00. In addition, on HCV NS5B (setting [8]), the pIC50 is not below 6.30.

As to `CCNc1cc2oc(-c3ccc(F)cc3)c(C(=O)NC)c2cc1OCCCOCC` [Example 367, 5-(3-Ethoxy-propoxy)-6-ethylamino-2-(4-fluoro-phenyl)-benzofuran-3-carboxylic acid methylamide], the pEC50 in assay [1] (setting [2]) is more than 6.00. The negative logarithm of the IC50 (pIC50) at HCV NS5B (setting [3]) was not below 6.30.

As to `CCOc1cc2c(C(=O)NC)c(-c3ccc(F)cc3)oc2cc1N(CC)S(C)(=O)=O` [Example 32, 5-Ethoxy-6-(ethyl-methanesulfonyl-amino)-2-(4-fluoro-phenyl)-benzofuran-3-carboxylic acid methylamide], the pEC50 in assay [1] (setting [9]) was more than 6.00. Further, on HCV NS5B (setting [10]), the pIC50 was not below 6.30.

`CNC(=O)c1c(-c2ccc(F)cc2)oc2cc(N3CCC(O)CC3)c(OC(C)C)cc12` [Example 140, 2-(4-Fluoro-phenyl)-6-(4-hydroxy-piperidin-1-yl)-5-isopropoxy-benzofuran-3-carboxylic acid methylamide]: the pEC50 in assay [1] (setting [4]) was more than 5.00. Besides, the pIC50 at HCV NS5B (HCV NS5B RdRp, BB7 genotype 1b) is 5.30 to 6.30.

With `CCN(c1cc2oc(-c3ccc(F)cc3)c(C(=O)NC)c2cc1OC)S(C)(=O)=O` [Example 277, 6-(Ethyl-methanesulfonyl-amino)-2-(4-fluoro-phenyl)-5-methoxy-benzofuran-3-carboxylic acid methylamide], the pEC50 in assay [1] (setting [2]) was more than 6.00. The pIC50 at HCV NS5B (setting [11]) is not below 6.30.

On to `CNC(=O)c1c(-c2ccc(F)cc2)oc2cc(N(C)S(C)(=O)=O)c(OCC(=O)Nc3nc(C)c(C)s3)cc12` [Example 417, 5-[(4,5-Dimethyl-thiazol-2-ylcarbamoyl)-methoxy]-2-(4-fluoro-phenyl)-6-(methanesulfonyl-methyl-amino)-benzofuran-3-carboxylic acid methylamide], for which the pEC50 in assay [1] (setting [7]) is more than 6.00. In addition, the pIC50 on HCV NS5B (setting [8]) is not below 6.30.

With `CNC(=O)c1c(-c2ccc(F)cc2)oc2cc(N(C)S(C)(=O)=O)c(OCc3nccs3)cc12` [Example 388, 2-(4-Fluoro-phenyl)-6-(methanesulfonyl-methyl-amino)-5-(thiazol-2-ylmethoxy)-benzofuran-3-carboxylic acid methylamide], in assay [1] (setting [7]), the pEC50 was more than 6.00. Also, the pIC50 on HCV NS5B (setting [8]) was not below 6.30.

For `CNC(=O)c1c(-c2ccc(F)cc2)oc2cc(N(C(C)=O)S(C)(=O)=O)c(OC)cc12` [Example 289, 6-(Acetyl-methanesulfonyl-amino)-2-(4-fluoro-phenyl)-5-methoxy-benzofuran-3-carboxylic acid methylamide], the pEC50 in assay [1] (setting [2]) was more than 6.00. Further, the pIC50 on HCV NS5B (setting [11]) is not below 6.30.

For the compound `CNC(=O)c1c(-c2ccc(F)cc2)oc2cc(N(C)S(C)(=O)=O)c(O)cc12` [Example 287, 2-(4-Fluoro-phenyl)-5-hydroxy-6-(methanesulfonyl-methyl-amino)-benzofuran-3-carboxylic acid methylamide], in assay [1] (setting [2]), the pEC50 is more than 5.00. Further, the pIC50 at HCV NS5B (setting [11]) is not below 6.30.

Take `CNC(=O)c1c(-c2ccc(F)cc2)oc2cc(-c3cc(COC)no3)c(OC(C)C)cc12` [Example 242, 2-(4-Fluoro-phenyl)-5-isopropoxy-6-(3-methoxymethyl-isoxazol-5-yl)-benzofuran-3-carboxylic acid methylamide]: in assay [1] (setting [5]), the pEC50 is 4.52. Also, the pIC50 at HCV NS5B (setting [6]) was 5.30 to 6.30.

As for `CNC(=O)c1c(-c2ccc(F)cc2)oc2cc(N(C)C)c(OC(C)C)cc12` [Example 20, 6-Dimethylamino-2-(4-fluoro-phenyl)-5-isopropoxy-benzofuran-3-carboxylic acid methylamide], in assay [1] (setting [9]), the pEC50 was more than 6.00. In addition, the negative logarithm of the IC50 (pIC50) on HCV NS5B (setting [10]) is not below 6.30.

Regarding `CNC(=O)c1c(-c2ccc(O)cc2)oc2ccc(OC(C)C)cc12` [Example 5, 2-(4-Hydroxy-phenyl)-5-isopropoxy-benzofuran-3-carboxylic acid methylamide], the pEC50 in assay [1] (setting [9]) was more than 5.00. Further, the pIC50 at HCV NS5B (setting [10]) is 5.30 to 6.30.

With `CNC(=O)c1c(-c2ccc(F)cc2)oc2ccc(OC(F)F)cc12` [Example 7, 5-Difluoromethoxy-2-(4-fluoro-phenyl)-benzofuran-3-carboxylic acid methylamide], the pEC50 in assay [1] (setting [9]) was more than 5.00. Also, on HCV NS5B (setting [10]), the pIC50 is 5.30 to 6.30.

Regarding `CNC(=O)c1c(-c2ccc(F)cc2)oc2cc(N3CCN(C(N)=O)CC3)c(OC(C)C)cc12` [Example 185, [2-(4-Fluoro-phenyl)-5-isopropoxy-3-methylcarbamoyl-benzofuran-6-yl]-piperazine-1-carboxylic acid amide], the pEC50 in assay [1] (HCV replicon, range of EC50) is more than 5.00. Further, the pIC50 at HCV NS5B (setting [6]) is 4.52 to 5.30.

As for `CNC(=O)c1c(-c2ccc(F)cc2)oc2cc(N3CCOCC3)c(OC3CCCC3)cc12` [Example 173, 5-Cyclopentyloxy-2-(4-fluoro-phenyl)-6-morpholin-4-yl-benzofuran-3-carboxylic acid mehtylamide], the pEC50 in assay [1] (setting [5]) is more than 6.00. For the same compound, on HCV NS5B (setting [6]), the pIC50 was not below 6.30.

The term pIC50 denotes the IC50 on a negative log10 scale, so that one unit is a factor of ten.
